Results published in ChEMBL document CHEMBL1123666, “Conformationally defined adrenergic agents. 4. 1-(aminomethyl)phthalans: synthesis and pharmacological consequences of the phthalan ring oxygen atom” (J Med Chem, 1987).

Columns and labels:
[1] = target: T1, Adrenergic receptor alpha-2 (Homo sapiens, UniProt P08913+P18825+P18089); experiment: Binding affinity towards alpha 2 adrenergic receptor; type: protein assay, Canis lupus familiaris
T1 sequence (P08913 whole entry): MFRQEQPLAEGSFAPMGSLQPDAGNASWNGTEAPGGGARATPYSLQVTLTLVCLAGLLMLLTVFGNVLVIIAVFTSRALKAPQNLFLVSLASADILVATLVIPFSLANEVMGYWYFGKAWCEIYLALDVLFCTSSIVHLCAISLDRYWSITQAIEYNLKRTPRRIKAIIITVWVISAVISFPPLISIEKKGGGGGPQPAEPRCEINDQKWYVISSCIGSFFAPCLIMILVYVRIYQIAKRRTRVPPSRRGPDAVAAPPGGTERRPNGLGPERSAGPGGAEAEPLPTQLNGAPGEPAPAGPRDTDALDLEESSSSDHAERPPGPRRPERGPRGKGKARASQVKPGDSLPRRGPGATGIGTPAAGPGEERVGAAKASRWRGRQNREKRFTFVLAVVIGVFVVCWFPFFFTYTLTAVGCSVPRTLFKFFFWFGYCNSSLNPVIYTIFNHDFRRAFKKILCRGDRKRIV
T1 sequence (P18825 whole entry): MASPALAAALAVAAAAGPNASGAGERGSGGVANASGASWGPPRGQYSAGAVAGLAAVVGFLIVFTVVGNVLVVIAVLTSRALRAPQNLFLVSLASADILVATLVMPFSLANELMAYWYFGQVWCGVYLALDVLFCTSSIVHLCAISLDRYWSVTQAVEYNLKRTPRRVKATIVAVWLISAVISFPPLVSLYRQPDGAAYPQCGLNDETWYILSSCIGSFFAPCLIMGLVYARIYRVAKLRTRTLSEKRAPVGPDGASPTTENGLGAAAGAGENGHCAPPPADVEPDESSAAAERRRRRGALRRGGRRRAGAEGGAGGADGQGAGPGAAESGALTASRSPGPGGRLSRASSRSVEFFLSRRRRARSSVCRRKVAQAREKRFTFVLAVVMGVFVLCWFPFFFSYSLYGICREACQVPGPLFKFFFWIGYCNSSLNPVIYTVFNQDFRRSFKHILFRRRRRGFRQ
T1 sequence (P18089 whole entry): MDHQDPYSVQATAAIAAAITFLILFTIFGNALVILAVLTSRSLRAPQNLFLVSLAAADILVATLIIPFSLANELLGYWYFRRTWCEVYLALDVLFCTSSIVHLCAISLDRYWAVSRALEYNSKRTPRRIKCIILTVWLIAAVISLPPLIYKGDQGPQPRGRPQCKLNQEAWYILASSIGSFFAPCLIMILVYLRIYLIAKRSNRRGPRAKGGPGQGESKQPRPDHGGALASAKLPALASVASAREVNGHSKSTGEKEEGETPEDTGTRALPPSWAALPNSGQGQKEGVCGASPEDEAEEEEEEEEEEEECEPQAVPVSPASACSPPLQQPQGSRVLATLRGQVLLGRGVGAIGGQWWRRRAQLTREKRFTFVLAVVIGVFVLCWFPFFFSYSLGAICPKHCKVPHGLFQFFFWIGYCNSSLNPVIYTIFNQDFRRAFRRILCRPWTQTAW

[2] = target: T2, Adrenergic receptor alpha-1 (Homo sapiens, UniProt P35348+P25100+P35368); experiment: Binding affinity towards alpha 1 adrenergic receptor; type: protein assay, Oryctolagus cuniculus
T2 sequence (P35348 whole entry): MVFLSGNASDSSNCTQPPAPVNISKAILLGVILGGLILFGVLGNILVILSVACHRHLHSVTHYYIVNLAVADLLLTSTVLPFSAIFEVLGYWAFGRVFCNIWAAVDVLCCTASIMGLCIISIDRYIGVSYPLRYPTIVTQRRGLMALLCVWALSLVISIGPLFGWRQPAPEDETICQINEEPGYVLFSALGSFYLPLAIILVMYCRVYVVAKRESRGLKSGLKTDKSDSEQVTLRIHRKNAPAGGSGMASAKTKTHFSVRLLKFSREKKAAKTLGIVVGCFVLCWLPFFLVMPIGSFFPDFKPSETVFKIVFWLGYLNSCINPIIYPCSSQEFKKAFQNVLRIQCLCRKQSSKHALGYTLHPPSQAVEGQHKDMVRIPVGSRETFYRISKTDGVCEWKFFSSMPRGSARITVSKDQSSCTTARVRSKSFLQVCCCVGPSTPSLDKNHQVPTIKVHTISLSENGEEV
T2 sequence (P25100 whole entry): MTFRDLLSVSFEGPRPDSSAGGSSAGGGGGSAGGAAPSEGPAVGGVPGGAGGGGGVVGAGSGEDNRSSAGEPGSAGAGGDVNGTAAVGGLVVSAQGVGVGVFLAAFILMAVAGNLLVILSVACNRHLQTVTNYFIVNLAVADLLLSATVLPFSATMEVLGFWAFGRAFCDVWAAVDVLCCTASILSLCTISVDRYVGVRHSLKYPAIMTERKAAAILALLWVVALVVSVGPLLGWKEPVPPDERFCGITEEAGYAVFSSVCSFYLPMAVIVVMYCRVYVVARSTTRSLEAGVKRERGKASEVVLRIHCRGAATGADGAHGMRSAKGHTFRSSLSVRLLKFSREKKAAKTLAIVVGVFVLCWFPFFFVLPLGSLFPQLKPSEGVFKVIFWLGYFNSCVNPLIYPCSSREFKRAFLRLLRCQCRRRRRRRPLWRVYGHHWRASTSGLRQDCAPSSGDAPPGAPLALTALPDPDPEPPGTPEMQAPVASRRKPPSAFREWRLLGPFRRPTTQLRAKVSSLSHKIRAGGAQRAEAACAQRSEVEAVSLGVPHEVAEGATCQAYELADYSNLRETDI
T2 sequence (P35368 whole entry): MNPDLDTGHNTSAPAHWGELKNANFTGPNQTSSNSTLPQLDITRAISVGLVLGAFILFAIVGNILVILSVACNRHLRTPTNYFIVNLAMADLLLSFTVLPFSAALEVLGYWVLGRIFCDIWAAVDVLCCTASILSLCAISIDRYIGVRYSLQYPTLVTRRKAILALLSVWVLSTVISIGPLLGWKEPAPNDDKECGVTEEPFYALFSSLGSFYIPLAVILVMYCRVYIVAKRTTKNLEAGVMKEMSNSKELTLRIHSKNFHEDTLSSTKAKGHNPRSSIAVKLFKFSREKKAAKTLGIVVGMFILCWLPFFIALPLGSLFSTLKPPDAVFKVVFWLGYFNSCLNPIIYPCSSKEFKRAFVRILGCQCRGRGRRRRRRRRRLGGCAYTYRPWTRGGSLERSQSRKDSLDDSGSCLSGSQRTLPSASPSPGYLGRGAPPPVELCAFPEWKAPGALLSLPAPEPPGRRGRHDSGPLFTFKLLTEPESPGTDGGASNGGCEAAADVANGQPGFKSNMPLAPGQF

[3] = target: T3, Adrenergic receptor alpha (Homo sapiens) (UniProt P35348+P08913+P18825+P25100+P35368+P18089); experiment: Ratio of Ki of alpha-1 to Ki of alpha-2 adrenoceptor; type: protein assay
[4] = target: Adrenergic receptor alpha-2 (Homo sapiens) (UniProt P08913+P18825+P18089); experiment: In vitro alpha 2 adrenergic activity uin phenozybenzamine pretreated dog saphenous vein expressed as percent maximum response of the tissue to norepinephrine.; type: functional, tissue-based; settings: Canis lupus familiaris
[5] = target: Adrenergic receptor alpha-1 (Homo sapiens) (UniProt P35348+P25100+P35368); experiment: In vitro alpha 1 adrenergic activity using isolated rabbit aorta expressed as percent maximum response of the tissue to norepinephrine.; type: functional, tissue-based; settings: Oryctolagus cuniculus
[6] = target: T3, Adrenergic receptor alpha (Homo sapiens); experiment: In vitro alpha-2 selectivity which is the measure of Ratio of Ki of alpha-1 adrenoceptor to Ki of alpha-2 adrenoceptor; type: protein assay
[7] = Ratio of ED50 of NE to ED50 of CPD from PBZ-pretreated dog alpha-2 adrenoceptor
[8] = Ratio of ED50 of NE to ED50 of CPD from Rabbit aorta alpha-1 adrenoceptor; type: tissue-based

| Structure (SMILES) | Ki [1] | Ki [2] | Ratio [3] | Emax [4] | Emax [5] | Ratio [6] | Ratio [7] | Ratio [8] |
| --- | --- | --- | --- | --- | --- | --- | --- | --- |
| NCC1CCc2cc(O)c(O)cc21 (stereo not given) | 520 nM | 26000 nM | 50 | – | – | – | – | – |
| CNCC1CCc2c1ccc(O)c2O (stereo not given) | 7 nM | 2000 nM | 323 | 81 | 109 | 110 | 29.6 | 0.27 |
| CNCC1OCc2c1ccc(O)c2O (stereo not given) | 18 nM | 1970 nM | 112 | 94 | 126 | 5.3 | 1.69 | 0.32 |
| NCC1OCc2cc(O)c(O)cc21 (stereo not given) | 13000 nM | 99000 nM | 9.7 | – | – | – | – | – |
| CCCN(CCC)CC1OCc2c1ccc(O)c2O (stereo not given) | 670 nM | 10300 nM | 15 | – | – | – | – | – |
| NCC1OCc2c1ccc(O)c2O (stereo not given) | 77 nM | 9800 nM | 127 | 90 | 107 | 36.3 | 1.45 | 0.04 |
| CCCN(CCC)CC1CCc2c1ccc(O)c2O (stereo not given) | 470 nM | 7400 nM | 16 | – | – | – | – | – |
| CN(C)CC1CCc2c1ccc(O)c2O (stereo not given) | 25 nM | 6900 nM | 276 | 101 | 105 | 7.6 | 2.05 | 0.27 |
| NCC1CCc2c1ccc(O)c2O (stereo not given) | 15 nM | 2250 nM | 145 | 91 | 102 | 209 | 3.55 | 0.017 |
| CN(C)CC1OCc2c1ccc(O)c2O (stereo not given) | 10.7 nM | 1160 nM | 109 | 107 | 114 | 4 | 4 | 1 |
